Experimental findings from US10131679B2, “Substituted dihydropyrrolopyrazole compound” (UBE INDUSTRIES, LTD., priority 2014, dated 2018) are described below.

Common to all, as to assay type: cell-based
Assay [1] deals with IL-17 production in human PBMC-derived T cells. The experiment in a line: Human PBMC various-stimulant cocktail-induced IL-17 production inhibition test. The note with it: 120 h; human T-cell suspension from PBMC, cocktail of various stimulants, incubation for 5 days, ELISA. An excerpt:
Human PBMC Various-Stimulant Cocktail-Induced IL-17 Production Inhibition Test
PBMC was separated and collected by using Ficoll-Paque (17-1440-02 manufactured by GE Healthcare Japan Corp.) from blood collected from healthy human adult in the presence of heparin. The collected PBMC was further cultured in a flask for a certain time, and then, non-adherent cells in the supernatant were collected and used as a T-cell suspension. RPMI1640 medium (manufactured by GIBCO/Thermo Fisher Scientific, Inc., REF. 11875), which is containing 10% FBS (manufactured by GIBCO/Thermo Fisher Scientific, Inc., REF. 10082), 1% penicillin/streptomycin/amphotericin B (manufactured by GIBCO/Thermo Fisher Scientific, Inc., REF. 15240-096), 1% nonessential amino acids (manufactured by GIBCO/Thermo Fisher Scientific, Inc., REF. 11140-050), and 1% pyruvic acid (manufactured by GIBCO/Thermo Fisher Scientific, Inc., REF. 11140) and containing a test compound dissolved in DMSO, 2 μg/mL (final concentration) CD28 antibody (manufactured by BioLegend, Inc., Cat. No. 302914), 10 μg/mL (final concentration) human IFN-γ antibody (manufactured by BD Biosciences, Cat. No. 554698), 10 μg/mL (final concentration) human IL-4 antibody (manufactured by BD Biosciences, Cat. No. 554481), 20 ng/mL (final concentration) human IL-6 (manufactured by BioLegend, Inc., Cat. No. 570802), 10 ng/mL (final concentration) human IL-23 (manufactured by BioLegend, Inc., Cat. No. 574102), 10 ng/mL (final concentration) human IL-1(3 (manufactured by PeproTech Inc., Cat. No. 200-01B), and 10 ng/mL (final concentration) human TGF-13 (manufactured by BioLegend, Inc., Cat. No. 580702), was added at 100 μL/well to T cell Activation Plate Anti-Human CD3 96-well plate (manufactured by Corning Inc., REF. 354725). Subsequently, 100 μL of a T-cell suspension adjusted to 2×10^5 cells/mL was added to each well (final DMSO concentration: 0.1%). Only DMSO was added to wells in the absence of the test compound. After incubation for 5 days in a carbon dioxide incubator, the culture supernatant was collected and stored at −20° C. until IL-17 content measurement.
In the IL-17 content measurement in the culture supernatant, a sandwich ELISA kit (Quantikine Human IL-17, manufactured by R&D Systems, Inc.) was used. The IL-17 content of each sample was calculated from the calibration curve of Standard IL-17 included in the kit. When the amount of IL-17 produced by the cocktail of various stimulants in the case of the addition of only DMSO was defined as 100%, the rate of inhibition of IL-17 production at each concentration of the test compound was calculated. The concentration of the test compound necessary for inhibiting 50% of IL-17 production (IC50 value) was calculated from the concentration of the added test compound and the rate of inhibition of IL-17 production by the test compound by using EXSUS (version 8.0.0 or version 8.0.1, manufactured by CAC Exicare Corp.).

The subject of assay [2] is Human keratinocytes (NHEK-Neo Pooled). Nature of the assay: Human keratinocyte growth inhibition assay. The note with it: 48 h, culture for 2 days, Cell Counting Kit-8. A digest of the protocol: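 Neonatal pooled NHEK were seeded at 2.0×10^3 cells/well, cultured overnight, then exposed to compound in 0.1% final DMSO for 2 days. Growth was read by CCK-8 absorbance. IC50 was calculated from the concentration–inhibition data.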

Assay [3] relates to human breast cancer cell line (MCF-7). Nature of the assay: Human breast cancer (MCF-7) cell growth inhibition test. The note with it: MCF7, 72 h, MCF-7, culture for 3 days, sulforhodamine B absorbance. How it is done: Human Breast Cancer (MCF-7) Cell Growth Inhibition Test
The measurement of a human breast cancer cell growth inhibitory effect was carried out by modifying the method of Simak et al. (Cancer Research, 69, 6208 (2009)).
A human breast cancer cell line (MCF-7) manufactured by DS Pharma Biomedical Co., Ltd., Cat. No. EC86012803, was cultured in MEM (manufactured by GIBCO/Thermo Fisher Scientific, Inc., REF. 11095-080) medium containing 10% FBS (manufactured by GIBCO/Thermo Fisher Scientific, Inc., REF. 10082-147), nonessential amino acids (manufactured by GIBCO/Thermo Fisher Scientific, Inc., REF. 11140-050), and 1% penicillin/streptomycin/amphotericin B (manufactured by GIBCO/Thermo Fisher Scientific, Inc., REF. 15240-096) and inoculated at 3.0×10^3 cells/well to a 96-well plate (manufactured by Corning Inc., REF. 353072). After overnight culture in a carbon dioxide incubator, it was replaced with a fresh MEM medium containing 10% FBS, nonessential amino acids, and 1% penicillin/streptomycin/amphotericin B on the next day, and a test compound dissolved in DMSO (manufactured by Wako Pure Chemical Industries, Ltd., Code No. 043-07216) (final DMSO concentration: 0.1%) was added and left standing in a carbon dioxide incubator. After culture for 3 days, the absorbance of each well was measured by using In Vitro Toxicology Assay Kit Sulforhodamine B based (manufactured by Sigma-Aldrich Co. LLC., Pcode 1001910706).
The rate of inhibition of cell growth at each concentration was calculated from the test compound concentration and the absorbance of sulforhodamine B, and the concentration of the test compound necessary for inhibiting 50% of cell growth (IC50 value) was calculated by using EXSUS (version 8.0.0 or version 8.0.1, manufactured by CAC Exicare Corp.).

As for `CC(C)(O)C[C@@H](NC(=O)N1Cc2c(NC(=O)C3([Si](C)(C)C)CCC3)n[nH]c2C1(C)C)c1ccccc1` [IV-299, (R)—N-(3-Hydroxy-3-methyl-1-phenylbutyl)-6,6-dimethyl-3-[1-(trimethylsilyl)cyclobutanecarboxamido]-4,6-dihydropyrrolo[3,4-c]pyrazole-5(1H)-carboxamide], the IC50 in assay [1] was at most 50 nM; in assay [2], at most 500 nM. As for `CC(C)[C@@H](CO)NC(=O)N1Cc2c(NC(=O)C3([Si](C)(C)C)CCC3)n[nH]c2C1(C)C` [IV-475, (S)—N-(1-Hydroxy-3-methylbutan-2-yl)-6,6-dimethyl-3-[1-(trimethylsilyl)cyclobutanecarboxamido]-4,6-dihydropyrrolo[3,4-c]pyrazole-5(1H)-carboxamide], in assay [3], the IC50 is at most 500 nM.

Turning to `COC[C@@H](NC(=O)N1Cc2c(NC(=O)C3([Si](C)(C)C)CCC3)n[nH]c2C1(C)C)c1ccccc1` [IV-123, (S)—N-(2-Methoxy-1-phenylethyl)-6,6-dimethyl-3-[1-(trimethylsilyl)cyclobutanecarboxamido]-4,6-dihydropyrrolo[3,4-c]pyrazole-5(1H)-carboxamide], the IC50 in assay [3] and in assay [2] was at most 500 nM in each case. Take `CC[Si](C)(C)C1(C(=O)Nc2n[nH]c3c2CN(C(=O)N[C@H](CO)c2ccccc2)C3(C)C)CCC1` [IV-117, (S)-3-[1-(Ethyldimethylsilyl)cyclobutanecarboxamido]-N-(2-hydroxy-1-phenylethyl)-6,6-dimethyl-4,6-dihydropyrrolo[3,4-c]pyrazole-5(1H)-carboxamide]: the IC50 in assay [3] was at most 500 nM. The compound `CC1(C)c2[nH]nc(NC(=O)C3([Si](C)(C)C)CCC3)c2CN1C(=O)N[C@H](CO)c1ccccc1` [IV-114, (S)—N-(2-Hydroxy-1-phenylethyl)-6,6-dimethyl-3-[1-(trimethylsilyl)cyclobutanecarboxamido]-4,6-dihydropyrrolo[3,4-c]pyrazole-5(1H)-carboxamide] registered an IC50 in assay [3] of at most 500 nM.

With `CCO[C@@H](C(=O)N1Cc2c(NC(=O)C3([Si](C)(C)C)CCC3)n[nH]c2C1(C)C)c1ccccc1` [IV-1188, (R)—N-[5-(2-Ethoxy-2-phenylacetyl)-6,6-dimethyl-1,4,5,6-tetrahydropyrrolo[3,4-c]pyrazol-3-yl]-1-(trimethylsilyl)cyclobutanecarboxamide], the IC50 in assay [1] is at most 50 nM; in assay [2] it was at most 500 nM.

In the case of `CC(C)(O)[C@@H](NC(=O)N1Cc2c(NC(=O)C3([Si](C)(C)C)CCC3)n[nH]c2C1(C)C)c1ccccc1` [IV-171, (S)—N-(2-Hydroxy-2-methyl-1-phenylpropyl)-6,6-dimethyl-3-[1-(trimethylsilyl)cyclobutanecarboxamido]-4,6-dihydropyrrolo[3,4-c]pyrazole-5(1H)-carboxamide], the concentration for half-maximal inhibition (IC50) in assay [3] and in assay [2] was at most 500 nM each time. Compound `C[C@@H](CO)NC(=O)N1Cc2c(NC(=O)C3([Si](C)(C)C)CCC3)n[nH]c2C1(C)C` [IV-455, (S)—N-(1-Hydroxypropan-2-yl)-6,6-dimethyl-3-[1-(trimethylsilyl)cyclobutanecarboxamido]-4,6-dihydropyrrolo[3,4-c]pyrazole-5(1H)-carboxamide] returned an IC50 in assay [3] of at most 500 nM. Take `CC[Si](C)(C)C1(C(=O)Nc2n[nH]c3c2CN(C(=O)[C@H](OC)c2ccccc2)C3(C)C)CCC1` [IV-1178, (R)-1-(Ethyldimethylsilyl)-N-[5-(2-methoxy-2-phenylacetyl)-6,6-dimethyl-1,4,5,6-tetrahydropyrrolo[3,4-c]pyrazol-3-yl] cyclobutanecarboxamide]: the figures for the IC50 in assay [1] and in assay [2] were at most 50 nM and at most 500 nM, respectively. On to `CC1(C)c2[nH]nc(NC(=O)C3([Si](C)(C)C)CCC3)c2CN1C(=O)N[C@H](CO)C1CCCCC1` [IV-495, (S)—N-(1-Cyclohexyl-2-hydroxyethyl)-6,6-dimethyl-3-[1-(trimethylsilyl)cyclobutanecarboxamido]-4,6-dihydropyrrolo[3,4-c]pyrazole-5(1H)-carboxamide], for which, in assay [3], the IC50 is at most 500 nM. For `CC1(C)c2[nH]nc(NC(=O)C3([Si](C)(C)C)CCC3)c2CN1C(=O)N[C@H](CCCCO)c1ccccc1` [IV-291, (R)—N-(5-Hydroxy-1-phenylpentyl)-6,6-dimethyl-3-[1-(trimethylsilyl)cyclobutanecarboxamido]-4,6-dihydropyrrolo[3,4-c]pyrazole-5(1H)-carboxamide], in assay [3], the IC50 was at most 500 nM. Turning to `CC1(C)c2[nH]nc(NC(=O)C3([Si](C)(C)C)CCC3)c2CN1C(=O)NCCO` [IV-438, N-(2-Hydroxyethyl)-6,6-dimethyl-3-[1-(trimethylsilyl)cyclobutanecarboxamido]-4,6-dihydropyrrolo[3,4-c]pyrazole-5(1H)-carboxamide], the IC50 in assay [3] is at most 500 nM. `CC1(C)c2[nH]nc(NC(=O)C3([Si](C)(C)C)CCC3)c2CN1C(=O)N[C@H](CCO)c1ccccc1` [IV-227, (R)—N-(3-Hydroxy-1-phenylpropyl)-6,6-dimethyl-3-[1-(trimethylsilyl)cyclobutanecarboxamido]-4,6-dihydropyrrolo[3,4-c]pyrazole-5(1H)-carboxamide]: the IC50 in assay [3] and in assay [2] was at most 500 nM throughout. Take `CO[C@@H](C(=O)N1Cc2c(NC(=O)C3([Si](C)(C)C)CCC3)n[nH]c2C1(C)C)c1ccccc1` [IV-1175, (R)—N-[5-(2-Methoxy-2-phenylacetyl)-6,6-dimethyl-1,4,5,6-tetrahydropyrrolo[3,4-c]pyrazol-3-yl]-1-(trimethylsilyl)cyclobutanecarboxamide]: the figures for the IC50 in assay [1] and in assay [2] were at most 50 nM and at most 500 nM, respectively.
